According to US8802633B1, “Autophagy-inducing peptide analogs” (Board of Regents, The University of Texas System, priority 2013, dated 2014):
No end group written: not given here.

Tests used:
[1] = tested on: LC3; experiment: western blot detection of the conversion of LC3-I into LC3-II; format: cell-based; conditions: 10 micomolar peptide, compared to 10 micomolar Tat-Beclin 1 compound
Procedure: (§1) To further assess the components of the beclin1 peptide required for autophagy-inducing activity, a series of shorter peptides were developed. Activity was measured by biochemical autophagy assays including western blot detection of p62 (a protein degraded by autophagy) and western blot detection of the conversion of LC3-I into LC3-II (the lipidated autophagosome-associated form of LC3).

[2] = tested on: p62; experiment: western blot detection of p62 (a protein degraded by autophagy); format: cell-based; conditions: 10 micomolar peptide, compared to 10 micomolar Tat-Beclin 1 compound
Procedure: as §1

“Tat-GG-VFNATFEIWHD (Tat-GGVFNATFEIWHD) [tat protein transduction domain linked through a diglycine linker to Beclin 1 residues 269-279 with H275E and S279D]” was tested, and the LC3-II conversion [1] was “increased LC3-II conversion” and the p62 degradation [2] was “increased p62 degradation”.
